Data: ChEMBL document CHEMBL1133581, “Synthesis and in vitro and in vivo functional studies of ortho-substituted phenylpiperazine and N-substituted 4-N-(o-methoxyphenyl)aminopiperidine analogues of WAY100635” (J Med Chem, 2000)

Assays:
[1] = organism: Cavia porcellus; test: tissue or blood; conditions: Ileum, read-out: pA2 (converted)
Description: Ability to antagonize the 8-OH-DPAT-induced contractions of a strip of guinea pig ileum tissue

[2] = organism: Rattus norvegicus
Description: Ability to counteract the 8-OH-DPAT (1 mg/kg sc)-induced Hypothermia in rats (n=4) and evaluated for the decrease in body temperature (degrees Celsius) at 1.0(micro mol/kg)

[3] = target: T1, 5-hydroxytryptamine receptor 1A (Rattus norvegicus, UniProt P19327); test: biochemical
T1 sequence (P19327 whole entry): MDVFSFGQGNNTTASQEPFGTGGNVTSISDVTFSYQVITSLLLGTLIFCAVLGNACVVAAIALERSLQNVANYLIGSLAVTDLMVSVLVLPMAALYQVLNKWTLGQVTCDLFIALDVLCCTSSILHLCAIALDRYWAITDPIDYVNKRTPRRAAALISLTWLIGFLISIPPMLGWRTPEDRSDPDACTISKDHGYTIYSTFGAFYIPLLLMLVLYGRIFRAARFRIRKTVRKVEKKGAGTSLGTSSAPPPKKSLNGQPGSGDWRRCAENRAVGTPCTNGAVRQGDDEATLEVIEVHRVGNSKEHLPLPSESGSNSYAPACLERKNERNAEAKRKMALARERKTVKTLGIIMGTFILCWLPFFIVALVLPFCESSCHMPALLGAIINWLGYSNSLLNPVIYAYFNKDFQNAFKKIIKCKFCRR
Description: In vitro affinity against 5-hydroxytryptamine 1A receptor using [3H]-8-OH-DPAT in rat hippocampus

[4] = organism: Rattus norvegicus; remark: listed apart in the source
Description: Ability to counteract the 8-OH-DPAT (1 mg/kg sc)-induced Hypothermia in rats (n=4) and evaluated for the decrease in body temperature (degrees Celsius) at 10(micro mol/kg)

[5] = organism: Rattus norvegicus; remark: listed apart in the source
[6] = organism: Rattus norvegicus; remark: listed apart in the source
Description: Ability to counteract the 8-OH-DPAT (1 mg/kg sc)-induced Hypothermia in rats (n=4) and evaluated for the decrease in body temperature (degrees Celsius) at 0.1(micro mol/kg)

Row | SMILES | Kb [1] [nM] | Decrease [2] [°C] | IC50 [3] [nM] | Decrease [4] [°C] | Vocalization time [5] [s] | Decrease [6] [°C]
1 | O=C(C1CCCCC1)N(CCN1CCN(c2ccccc2OS(=O)(=O)C(F)(F)F)CC1)c1ccccn1 | 20 | 0 | 36 | 0.3 | 146 | 1.5
2 | CCCN(CCC)C1CCc2cccc(O)c2C1 (stereo not drawn) [8-OH-DPAT] | – | – | – | – | 4.9 | 2
3 | CS(=O)(=O)Oc1ccccc1N1CCN(CCN(C(=O)C2CCCCC2)c2ccccn2)CC1 | 2.51 | 0.5 | 7.25 | 0.4 | 167 | 1.1
4 | COc1ccccc1N(C)C1CCN(CCN(C(=O)C2CCCCC2)c2ccccn2)CC1 | – | – | 1290 | – | – | –
5 | O=C(C1CCCCC1)N(CCN1CCN(c2ccccc2OCCCF)CC1)c1ccccn1 | 5.01 | 0.6 | 6.05 | 0.5 | 171 | 2.4
6 | O=C(C1CCCCC1)N(CCN1CCN(c2ccccc2O)CC1)c1ccccn1 | 10 | 0.2 | 2.1 | 0.3 | 166 | 0.6
7 | O=C(C1CCCCC1)N(CCN1CCN(c2ccccc2OCCF)CC1)c1ccccn1 | 3.16 | 1.1 | 1.55 | 0.4 | 164 | 1.8
